Tested on: colon organoid
Experiment: Mouse colon organoid culture
Format: cell-based
Details: day 21 of culture, 10 μM
Procedure: 7-Week-old male C57BL/6N mice were purchased from CHARLES RIVER LABORATORIES JAPAN, INC. After the acclimation period, the small intestine and colon were isolated under anesthesia. Crypts were collected from the excised small intestine and colon according to the protocol of IntestiCult (trade mark) Organoid Growth Medium. To be specific, the inside of the intestine was washed with 1 mL of cold PBS, then incised vertically, and washed 3 times with 1 mL of cold PBS. The intestine was transferred to a 10 cm petri dish filled with cold PBS, washed thoroughly again, and transferred to a 50 mL tube containing 15 mL of cold PBS while cutting into 2 mm pieces. […] The number of crypts contained in 10 μL of the suspension was counted under a microscope to determine the concentration, and the mixture was dispensed into a 15 mL tube at 800 crypts/tube, and centrifuged at 4° C., 200 g×5 min. […] Organoids were image-analyzed over time by Cell3iMager duos (SCREEN Holdings Co., Ltd.). For image analysis, the number of crypts having a diameter of 30-200 μm was counted as the number of seeded crypts on the first day of culture, and then those grown to 70 μm or more over time were counted as organoids, and the organoid formation rate from the crypts was calculated. At that time, the average diameter of the organoids measured at the same time was calculated. […]

CC/C(=N\NC(=O)C(C)Nc1cncc(F)c1)c1ccc(O)c(C)c1O (centres unmarked) [A-007]
formation rate (%) (DMSO 14): 49%
average diameter (μm) (DMSO 207): 251 μm

From US20220144775A1, “HYDRAZIDE COMPOUND AND KINASE INHIBITOR” (NISSAN CHEMICAL CORPORATION, priority 2019, published 2022)
